Assay: Reductive stability in the presence of glutathione (HPLC)
Type: physicochemical
Conditions: GSH 5 mM, 24 h, ambient temperature, HPLC analysis
Description: Reductive stability of 15 c, 15 f and 20 a in the presence of the cellular reductant glutathione (5 mM) was confirmed by HPLC analysis (Figure S5, Table S2). For the cell‐based activity assay, we illuminated the compounds solved in DMSO with UV light (365 nm) prior to incubation with the cells. […] As expected, 15 c and 15 f increased the levels of acetylated lysines H3K18 and H3K56, which are both affirmed substrates of Sirt2. In addition, we found H4K8 hyperacetylation even though this site is usually not affected by sirtuin catalysed deacetylation, indicating a further mode of action. […] In Figure 6, we show the relative results, whereby the acetylation product was related to total target protein and to the vehicle control. Again, we found an increase in acetylated histones induced by 15 c and 15 f which proves activity of these two compounds in living cells.
Glutathione (GSH) is able to reduce certain azobenzenes yielding the respective hydrazines.
Therefore, we determined the reductive stability of 15c, 15f and 20a prior to examination of the biological activity in a cell-based assay. […]
Table S2: Relative percentages (%) of GSH and the respective photoisomers extracted from the HPLC analysis. Samples were analyzed right after addition of GSH (0 h) and after 24 h of incubation at ambient temperature. […]
Fluorescence-Based Activity Assay (ZMAL-Assay)
The influence of the synthesized compounds on the deacetylase activity of the class I sirtuins Sirt1–3 was determined in a homogenous fluorescence-based enzyme assay, using the artificial substrate Z-(Ac)Lys-AMC (ZMAL). […]
The latter is subsequently cleaved by tryptic digestion, releasing 7-amino-4-methylcoumarin (AMC), excitation of which leads to a fluorescent read out (λex=390 nm; λem=460 nm). […]
contribute to the fluorescence signal. Therefore, the fluorescence intensity is proportional to the activity of the respective sirtuin.
After subtraction of the blank fluorescence signal (without enzyme) from the signal of the respective probe, the residual signal intensity is related to a 100 % conversion control (AMC),

Reductive stability in the presence of glutathione, confirmed:
CC(C)(C)OC(=O)NCc1ccc(/N=N/c2cncc(C(N)=O)c2)cc1 [15 c]
CCCCCCCCCC(=O)NCc1ccc(/N=N/c2cncc(C(N)=O)c2)cc1 [15 f]
NC(=O)c1cncc(OCc2cccc(/N=N/c3ccc(OCc4ccccc4)cc3)c2)c1 [20 a]
